According to ChEMBL document CHEMBL1154845, “Neocomplanines A and B, a complanine family isolated from the marine fireworm” (J Nat Prod, 2010):
Activity calls are given as the source filed them. No cut-off for these calls is given here.

Assays:
Mus musculus = experiment: Toxicity in sc dosed mouse assessed as foot-pad swelling over 5 hrs relative to control; assay type: organism-based; conditions: in vivo
[1] = Activation of PKC assessed as [gamma32P] incorporation at 2 mM after 15 mins by scintillation counting in presence of TPA
[2] = Activation of PKC assessed as [gamma32P] incorporation after 15 mins by scintillation counting in presence of TPA
[3] = Activation of PKC assessed as [gamma32P] incorporation at greater than 0.5 mM after 15 mins by scintillation counting in presence of Ca2+

Row | Activity [1] [pmol/min] | Activity [2] | Activity [3] | SMILES | Activity (Mus musculus)
1 | 10.9 |  |  | CC/C=C\C/C=C\CC[C@@H](O)CNC(=O)CCC[N+](C)(C)C.[I-] [COMPLANINE] | Toxic
2 |  | Dose-dependent effect | Active | CC(C)CCCCC(O)CNC(=O)CCC[N+](C)(C)C.[I-] (stereo not drawn) [NEOCOMPLANINE A] | Toxic
3 |  | Dose-dependent effect | Active | CCCCCCCC(O)CNC(=O)CCC[N+](C)(C)C.[I-] (stereo not drawn) [NEOCOMPLANINE B] | Toxic
